Results reported in patent US20020137779A1, “Use of L-2-oxothiazolidine-4-carboxylic acid for the treatment of type 2 diabetes” (Advanced Biochemicals Inc., priority 2001, published 2002).

Assays:
Format in all cases: in vivo, mouse
[1] = tested on: type 2 diabetes mice (C57BL/KsJ-db/db Jcl); assay: blood glucose levels after glucose intake, single oral administration (Example 3); settings: for blood glucose level / decrease of blood glucose level vs control group: 30 min after glucose intake
Procedure: (§1) Third step; Determining the abilities of lowering blood glucose level and increasing insulin secretion ability following glucose loading, by administering a single dose of 8-80 mg/kg of L-2-oxothiazolidine-4-carboxylic acid to a type 2 diabetes mouse, Fourth step; Examining the effect of long term administration of L-2-oxothiazolidine-4-carboxylic acid on lowering blood glucose levels,
(§2) Under the same breeding condition as in EXAMPLE 2, no feed but water was given to 7 week old type 2 diabetes mice (C57BL/KsJ-db/db Jel, Clea, Japan) for 13 hours. 0.2 ml of PBS was orally given to the control group(5 mice) using feeding needle, and 8-80 mg/kg of L-2-oxothiazolidine-4-carboxylic acid dissolved in 0.2 ml of PBS was orally administered to the experimental group(5 mice). After 5 hours of drug administration, 1 g/kg of glucose (Sigma, USA) was intraperitoneally injected and the mice were maintained for 30 to 120 minutes. The blood glucose levels of type 2 diabetes mice at various time points were measured by the glucose oxidase method using a glucose analyzer(One-touch Basic, Lifescan, USA), and serum insulin levels were determined using a radioimmunoassay, as described in EXAMPLE 2.

[2] = tested on: type 2 diabetes mice (C57BL/KsJ-db/db Jcl); assay: serum insulin levels after glucose intake, single oral administration (Example 3); settings: for concentration of insulin / increase of insulin concentration vs control group: 30 min after glucose intake
Procedure: as §1, §2

[3] = tested on: type 2 diabetes mice (C57BL/KsJ-db/db Jcl); assay: blood insulin concentration after oral administration for four weeks (Example 5); settings: 80 mg/kg per day for four weeks
Procedure: Fifth step Determining the ability of insulin secretion after oral administration of L-2-oxothiazolidine-4-carboxylic acid for 4 weeks to a 7 week old type 2 diabetes mouse, and
Seven week old type 2 diabetes mice were maintained as in EXAMPLE 2. 0.2 ml of PBS (pH 7.4) was given to a control group(4 mice) twice a day for four weeks, and 80 mg/kg of L-2-oxothiazolidine-4-carboxylic acid dissolved in 0.2 ml of PBS of which pH was adjusted to 7.4 with 3 N NaOH(Junsei, Japan), was orally administered to an experimental group(4 mice). Five hours after the drug was finally administered, 1 g/kg of glucose was intraperitoneally injected. Tails were cut, blood samples were taken from the tails at 60 min. time intervals until 180 min., the samples were left at room temperature for three hours, sera were collected, and the insulin concentration was measured by radioimmunoassay.

[4] = tested on: type 2 diabetes mice (C57BL/KsJ-db/db Jcl); assay: serum insulin after a single oral dose and glucose loading (Example 2); settings: for Conc. of insulin: glucose 1 g/kg i.p. after 5 hours, serum 30 minutes later
Procedure: Second step; Determining optimum L-2-oxothiazolidine-4-carboxylic acid concentration which is appropriate for enhancing insulin secretion and lowering blood glucose levels in a type 2 diabetes mouse, by administering 0-400 mg/kg of L-2-oxothiazolidine-4-carboxylic acid orally,
The present example is to show an appropriate concentration of L-2-oxothiazolidine-4-carboxylic acid for the purpose of improving the ability of insulin secretion and lowering blood glucose levels, by varying the concentrations of L-2-oxothiazolidine-4-carboxylic acid in a single oral dose to type 2 diabetes mice.
The present inventors ascertained the effect of various concentrations of L-2-oxothiazolidine-4-carboxylic acid on lowering blood glucose level and insulin secretion. in which experiments enough sterilized-feed and water was given to 6 week old C57BL mice(Samtako, purchased from Clea, Japan) in the light condition of 12L: 12D for a week, bred the mice in the incubator of A.B.J Co.(Building 1 Chonbuk National University Medical School, Chonju, Korea) for a week, and no feed but water was given to the mice for 13 hours before insulin and glucose levels were measured.
0.2 ml of PBS (pH 7.4) was orally given to the control group(5 mice) using feeding needle, and 1.5-400 mg/kg of L-2-oxothiazolidine-4-carboxylic acid, dissolved in 0.2 ml of PBS and its pH was adjusted to 7.2 with 3 N NaOH(Junsei, Japan), was orally administered to experimental group(5 mice). After 5 hours of the drug administration, glucose(Sigma, USA) was injected intraperitoneally at the concentration of 1 g/kg, and incubated the mice for 30 minutes. Immediately after the mice were anesthetized with ether, the thoraces of the mice was incised to take blood, serum was isolated, and the insulin concentration of the mice-serum was measured by radioimmunoassay using rat insulin assay kit(Amersham Pharmacia Bio Co., USA).

Question: How did the blood glucose level ([1]; 40 mg/kg single oral dose) turn out when `O=C1NC(C(=O)O)CS1` [OTC, L-2-oxothiazolidine-4-carboxylic acid] was run?
Answer: The blood glucose level was 295 ± 8.5 mg/dL.

Question: What about the “decrease of blood glucose level vs control group” value ([1]; 40 mg/kg single oral dose) of the same compound?
Answer: The value was 34.27%.

Question: And the blood glucose level ([1]; 80 mg/kg single oral dose)?
Answer: Its blood glucose level is 269 ± 6.85 mg/dL.

Question: And the “decrease of blood glucose level vs control group” value ([1]; 80 mg/kg single oral dose)?
Answer: Its value is 40.01%.

Question: And the “duration of the lowering effect of blood glucose levels after the intake of glucose” value ([1]; 40-80 mg/kg single oral dose)?
Answer: The value was “about 60 min”.

Question: And the concentration of insulin ([2]; 40 mg/kg single oral dose)?
Answer: Its concentration of insulin is 1,650±103 pmol/1.

Question: And the “increase of insulin concentration vs control group” value ([2]; 40 mg/kg single oral dose)?
Answer: The value was 26.5%.

Question: What about the concentration of insulin ([2]; 80 mg/kg single oral dose) of the same compound?
Answer: The concentration of insulin was 1,760±94 pmol/l.

Question: And the “increase of insulin concentration vs control group” value ([2]; 80 mg/kg single oral dose)?
Answer: The value was 35.4%.

Question: And the “duration of the improvement of insulin secretion after the intake of glucose” value ([2]; 40-80 mg/kg single oral dose)?
Answer: The value was “about 120 min”.

Question: And the “duration of the effect on insulin concentration” value [3]?
Answer: Its value is “about 120 min”.

Question: And the insulin concentration ([3]; 120 min after glucose intake)?
Answer: Its insulin concentration is 1285.04 ± 135.60 pmol/L.

Question: And the “increase of insulin concentration compared to the control group” value ([3]; after 120 min)?
Answer: The value was 4.93 times.

Question: And the insulin concentration ([3]; fasted state)?
Answer: Its insulin concentration is 450 ± 43.50 pmol/L.

Question: What about the “insulin secretion ability compared to the control group” value ([4]; 3-20 mg/kg single oral dose, p<0.05) of the same compound?
Answer: The value was “improvement of insulin secretion ability”.

Question: What about the “insulin secretion ability compared to the control group” value ([4]; 40-160 mg/kg single oral dose, p<0.001) of the same compound?
Answer: The value was “more than 2 times”.

Question: What about the Conc. of insulin ([4]; OTC 1.5 mg/kg single oral dose) of the same compound?
Answer: The Conc. of insulin was 878 pmol/L.

Question: What about the Conc. of insulin ([4]; OTC 3 mg/kg single oral dose) of the same compound?
Answer: Its Conc. of insulin is 908 pmol/L.

Question: What about the Conc. of insulin ([4]; OTC 10 mg/kg single oral dose) of the same compound?
Answer: The Conc. of insulin was 1103 pmol/L.

Question: And the Conc. of insulin ([4]; OTC 20 mg/kg single oral dose)?
Answer: Its Conc. of insulin is 1,205 pmol/l.

Question: What about the Conc. of insulin ([4]; OTC 40 mg/kg single oral dose) of the same compound?
Answer: The Conc. of insulin was 1,535 pmol/l.

Question: What about the Conc. of insulin ([4]; OTC 80 mg/kg single oral dose) of the same compound?
Answer: Its Conc. of insulin is 1,750 pmol/l.

Question: And the Conc. of insulin ([4]; OTC 160 mg/kg single oral dose)?
Answer: Its Conc. of insulin is 1684 pmol/L.

Question: What about the Conc. of insulin ([4]; OTC 400 mg/kg single oral dose) of the same compound?
Answer: Its Conc. of insulin is 1350 pmol/L.

Question: What about the “insulin secretion ability compared to the control group” value ([4]; over 400 mg/kg single oral dose, p<0.005) of the same compound?
Answer: The value was “salient improvement of insulin secretion ability”.
